These results are taken from PMC8453936, “Development and in vitro Profiling of Dual FXR/LTA4H Modulators” (Chemmedchem, 2021).

Experiment [1] addresses T1, full-length human FXR (Homo sapiens, UniProt Q96RI1).
T1 construct: coding for the full‐length human nuclear receptors FXR and RXRα; expressed in transfected cells; host or cells: HeLa
T1 sequence (Q96RI1 1-486): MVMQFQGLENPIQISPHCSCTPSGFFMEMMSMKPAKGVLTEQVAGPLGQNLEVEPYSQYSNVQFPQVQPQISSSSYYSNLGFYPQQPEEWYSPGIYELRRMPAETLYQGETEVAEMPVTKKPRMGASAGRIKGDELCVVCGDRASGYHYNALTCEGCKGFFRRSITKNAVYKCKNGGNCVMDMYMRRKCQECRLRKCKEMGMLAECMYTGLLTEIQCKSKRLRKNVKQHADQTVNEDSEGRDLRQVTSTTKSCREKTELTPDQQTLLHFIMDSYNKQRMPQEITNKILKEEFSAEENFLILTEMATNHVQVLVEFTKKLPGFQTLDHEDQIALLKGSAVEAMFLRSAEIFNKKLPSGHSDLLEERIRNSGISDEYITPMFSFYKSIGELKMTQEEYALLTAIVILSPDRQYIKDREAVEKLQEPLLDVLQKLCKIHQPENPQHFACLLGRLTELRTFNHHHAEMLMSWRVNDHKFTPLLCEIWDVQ
T1 sequence (P19793 1-462 partner): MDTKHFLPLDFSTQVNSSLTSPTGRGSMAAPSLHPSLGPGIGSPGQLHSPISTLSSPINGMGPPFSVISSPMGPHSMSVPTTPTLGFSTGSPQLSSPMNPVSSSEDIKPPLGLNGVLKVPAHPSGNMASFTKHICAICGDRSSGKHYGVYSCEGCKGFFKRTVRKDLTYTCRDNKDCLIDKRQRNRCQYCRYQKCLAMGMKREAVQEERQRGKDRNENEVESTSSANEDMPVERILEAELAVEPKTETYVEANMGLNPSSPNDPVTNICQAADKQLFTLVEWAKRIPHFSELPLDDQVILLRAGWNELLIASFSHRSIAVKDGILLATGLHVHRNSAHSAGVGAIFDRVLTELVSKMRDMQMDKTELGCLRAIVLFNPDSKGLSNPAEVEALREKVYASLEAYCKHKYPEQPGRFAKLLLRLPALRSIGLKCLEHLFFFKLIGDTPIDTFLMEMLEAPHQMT
In words: Full-length FXR:RXR reporter gene assay (BSEP promoter, HeLa, transiently transfected). To be noted: mean±S.E.M., n≥3; for EC50: full-length FXR reporter gene assay, BSEP promoter, HeLa; for FXR efficacy (maximum FXR activation relative to 3 μM GW4064): 3 μM GW4064 = 100 % activation. In kind it is cell-based. The method, then:
Full‐length FXR:RXR reporter gene assay. HeLa cells were grown in DMEM high glucose supplemented with 10 % FCS, sodium pyruvate (1 mM), penicillin (100 U/mL) and streptomycin (100 μg/mL) at 37 °C and 5 % CO2 and seeded in 96‐well plates 24 h before transfection with a density of 8000 cells per well. 3.5 h before transfection, medium was changed to DMEM high glucose, supplemented with sodium pyruvate (1 mM), penicillin (100 U/mL), streptomycin (100 μg/mL) and 0.5 % charcoal‐stripped FCS. Cells were then transiently transfected with using the calcium phosphate transfection method with pGL3basic‐BSEP[26, 27] (containing a shortened construct of the promotor of the bile salt export protein (BSEP) cloned into the SacI/NheI cleavage site in front of the luciferase gene), pcDNA3‐hFXR[26] and pSG5‐hRXR[38] coding for the full‐length human nuclear receptors FXR and RXRα, and pRL‐SV40 (Promega) for normalization of transfection efficiency and cell growth. 16 h after transfection, medium was changed to DMEM high glucose, supplemented with sodium pyruvate (1 mM), penicillin (100 U/mL), streptomycin (100 μg/mL) and 0.5 % charcoal‐stripped FCS. 24 h after transfection, medium was changed to DMEM without phenol red, supplemented with sodium pyruvate (1 mM), penicillin (100 U/mL), streptomycin (100 μg/mL), L‐glutamine (2 mM) and 0.5 % charcoal‐stripped FCS, now additionally containing 0.1 % DMSO and the respective test compound or 0.1 % DMSO alone as untreated control. Each sample was tested in triplicate wells and each experiment was repeated independently at least three times. Following 24 h incubation with the test compounds, cells were assayed for luciferase activity using Dual‐Glo Luciferase Assay System (Promega) according to the manufacturer's protocol. Luminescence was measured with a Tecan Spark M luminometer (Tecan). Normalization of transfection efficiency and cell growth was done by division of firefly luciferase data by Renilla luciferase data multiplied by 1000 resulting in relative light units (RLU). Fold activation was obtained by dividing the mean RLU of the tested compound at a respective concentration by the mean RLU of untreated control. EC50 and standard error of the mean values were calculated with the mean fold activation values of at least three independent experiments with SigmaPlot 10.0 (Systat Software GmbH, Erkrath, Germany) using a four‐parameter logistic regression.

Experiment [2] has as its target T2, recombinant human LTA4H (Homo sapiens, UniProt P09960).
T2 sequence (P09960 1-611): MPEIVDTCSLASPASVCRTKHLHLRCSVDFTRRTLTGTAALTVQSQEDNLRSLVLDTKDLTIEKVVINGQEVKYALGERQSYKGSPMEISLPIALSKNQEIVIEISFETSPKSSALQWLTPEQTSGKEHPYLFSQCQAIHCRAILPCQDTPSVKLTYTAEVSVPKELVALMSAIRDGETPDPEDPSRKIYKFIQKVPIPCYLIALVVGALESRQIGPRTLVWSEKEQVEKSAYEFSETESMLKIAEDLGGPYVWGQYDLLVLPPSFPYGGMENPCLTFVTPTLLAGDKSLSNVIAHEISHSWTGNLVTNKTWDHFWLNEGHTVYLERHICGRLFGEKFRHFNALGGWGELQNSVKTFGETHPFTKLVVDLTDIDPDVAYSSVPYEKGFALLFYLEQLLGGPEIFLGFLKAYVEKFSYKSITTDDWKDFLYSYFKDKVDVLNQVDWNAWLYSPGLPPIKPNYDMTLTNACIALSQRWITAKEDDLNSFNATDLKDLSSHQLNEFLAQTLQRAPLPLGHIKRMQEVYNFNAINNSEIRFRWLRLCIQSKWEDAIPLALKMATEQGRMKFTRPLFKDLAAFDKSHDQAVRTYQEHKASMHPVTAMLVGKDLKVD
The following applies: for LTA4H max. inhib.: LTA4H inhibition at the highest tested concentration (up to 100 μM), mean±S.E.M., n=3.
Text: FXR modulation by 3–20 was characterized in a cellular (HeLa, transiently transfected) full‐length FXR reporter gene assay employing the human FXR response element from the promoter region of bile salt export protein (BSEP) to govern firefly luciferase expression as reporter gene.[26, 27] FXR and its natural heterodimer partner retinoid X receptor (RXR) were constitutively over‐expressed and a constitutively expressed renilla luciferase was present as internal control for transfection efficiency and cellular health.
LTA4H assay. […] The assay was performed in black polystyrol 96‐well plates in a final volume of 100 μL. Test compound solution in DMSO (1 μL) or DMSO alone as control were incubated with 89 μl protein mixture (containing LTA4H, buffer and Triton‐X‐100). After 30 min, 10 μl of substrate mixture (containing L‐arginin‐7‐amido‐4‐methylcumarine and DMSO in buffer) were added. […] A blank measurement containing no protein was performed and treated as 0 % conversion control. All samples were measured in triplicates and each experiment was conducted in three independent repeats.

The target in experiment [3] is T1, full-length human FXR. To be noted: mean±S.E.M., n≥3, previously reported, cited from earlier work; for FXR efficacy (maximum FXR activation relative to 3 μM GW4064): 3 μM GW4064 = 100 % activation; for EC50 / EC50(FXR): full-length FXR reporter gene assay, BSEP promoter, HeLa. A general note: Reporter assays use an easily measured gene product as a stand-in for the process of interest.

Where “and” joins values, the source holds several entries; their conditions need not be identical. Identical values can stand only once. Like-named read-outs stand apart in the source and are kept apart here.

Usually EC50 stands for the concentration giving half of the maximal effect. What is called IC50 is the concentration that gives 50% inhibition. For `O=C(O)Cc1cccc(NC(=O)c2ccc(OCCCc3ccccc3)cc2)c1` [compound 17], the half-maximal effective concentration (EC50) in experiment [1] was over 30000 nM. Further, in experiment [2], the concentration for half-maximal inhibition (IC50) worked out at 1900 ± 100 nM and the LTA4H max. inhib. is listed as 97.0±0.2%.
On to `O=C(Nc1ccnc(C(=O)O)c1)c1ccc(Oc2ccccc2)cc1` [compound 14], for which, in experiment [2], the half-maximal inhibitory concentration (IC50) stood at 950 ± 10 nM and the LTA4H max. inhib. turned out to be 97.9±0.1%.
Regarding `O=C(O)c1ccc(NC(=O)c2ccc(OCCCc3ccccc3)cc2)cc1` [compound 16], in experiment [2], the IC50 amounted to 200 ± 20 nM and the LTA4H max. inhib. came to 98.8±0.1%.
As to `O=C(O)c1cccc(NC(=O)c2ccc(Oc3ccccc3)cc2)c1` [compound 11], in experiment [3], the “FXR efficacy (maximum FXR activation relative to 3 μM GW4064)” value was 35±1% and the EC50 is 1 ± 0.3 nM. Also, in experiment [2], the IC50 came to 550 ± 60 nM and the LTA4H max. inhib. was 98.2±0.1%.
Take `O=C(O)c1cccc(NC(=O)c2ccc(OCCc3ccccc3)cc2)c1` [compound 9]: in experiment [3], the “FXR efficacy (maximum FXR activation relative to 3 μM GW4064)” value is given as 56±1% and the EC50 is 150 ± 20 nM. In experiment [2], the IC50 was determined as 610 ± 60 nM and the LTA4H max. inhib. amounted to 96.0±0.2%.
On to `O=C(O)c1ccc(NC(=O)c2ccc(OCCCCc3ccccc3)cc2)cc1` [compound 7], for which, in experiment [3], the “FXR efficacy (maximum FXR activation relative to 3 μM GW4064)” value is given as 29±1% and the concentration for a half-maximal effect (EC50) is 14 ± 1 nM. Moreover, in experiment [2], the IC50 was determined as 370 ± 20 nM and the LTA4H max. inhib. came out at 97.8±0.1%.
For the compound `O=C(Nc1cccc2c(=O)cc(-c3nnn[nH]3)oc12)c1ccc(OCCCCc2ccccc2)cc1` [compound 4, pranlukast, reference compound], in experiment [2], the IC50 was 1600 ± 200 nM and the LTA4H max. inhib. is 82.6±0.8%.
Consider `COc1c(NC(=O)c2ccc(OCCCCc3ccccc3)cc2)cccc1C(=O)O` [compound 6], for which, in experiment [3], the “FXR efficacy (maximum FXR activation relative to 3 μM GW4064)” value is 26±1% and the half-maximal effective concentration (EC50) was 190 ± 20 nM. For the same compound, in experiment [2], the IC50 turned out to be 5500 ± 500 nM and the LTA4H max. inhib. is 85±2%.
For `O=C(Nc1cccc2c(=O)cc(C(=O)O)oc12)c1ccc(OCCCCc2ccccc2)cc1` [compound 5], the “EC50(FXR)” value in experiment [3] is “inactive (50 μM)”. In experiment [2], the IC50 amounted to 15000 ± 2000 nM and the LTA4H max. inhib. came out at 80±5%.
On to `O=C(O)c1cccc(NC(=O)c2ccc(Oc3cccc(-c4ccccc4)c3)cc2)c1` [compound 12], for which, in experiment [1], the “FXR efficacy (maximum FXR activation relative to 3 μM GW4064)” value is 14% and 14±1%; a half-maximal response (EC50) required 300 ± 100 nM. For the same compound, in experiment [2], the IC50 came to 5200 ± 600 nM and the LTA4H max. inhib. amounted to 81.1±0.6%.
In the case of `O=C(O)c1cccc(NC(=O)c2ccc(OCCCCc3ccccc3)cc2)c1` [compound 3], the “FXR efficacy (maximum FXR activation relative to 3 μM GW4064)” value in experiment [3] is 34% and 34±1%. Also, in experiment [2], the IC50 is 540 ± 70 nM and the LTA4H max. inhib. was 97.2±0.4%.
On to `O=C(Nc1cccc(C(=O)O)n1)c1ccc(Oc2ccccc2)cc1` [compound 13], for which the “EC50(FXR)” value in experiment [3] is “antagonist”. In addition, in experiment [2], the IC50 was 280 ± 20 nM and the LTA4H max. inhib. came to 90.8±0.3%.
Regarding `O=C(Nc1nc(C(=O)O)co1)c1ccc(OCCCc2ccccc2)cc1` [compound 20], in experiment [1], the “FXR efficacy (maximum FXR activation relative to 3 μM GW4064)” value was 30±1% and the EC50 worked out at 11000 ± 2000 nM. For the same compound, in experiment [2], the LTA4H max. inhib. is reported as 99.7±0.1%.
In the case of `O=C(O)c1ccnc(NC(=O)c2ccc(Oc3ccccc3)cc2)c1` [compound 15], in experiment [3], the “FXR efficacy (maximum FXR activation relative to 3 μM GW4064)” value is reported as 56±1% and the EC50 was 70 ± 20 nM. Besides, in experiment [2], the concentration for half-maximal inhibition (IC50) is 2100 ± 100 nM and the LTA4H max. inhib. turned out to be 89.6±0.6%.
In the case of `CS(=O)(=O)Nc1cccc(NC(=O)c2ccc(OCCCc3ccccc3)cc2)c1` [compound 18], in experiment [1], the “FXR efficacy (maximum FXR activation relative to 3 μM GW4064)” value is on record as 35±2% and the half-maximal effective concentration (EC50) is 1600 ± 400 nM. In addition, in experiment [2], the IC50 amounted to 130 ± 10 nM and the LTA4H max. inhib. turned out to be 89.5±0.5%.
With `O=C(O)c1cccc(NC(=O)c2ccc(OCc3ccccc3)cc2)c1` [compound 10], the “FXR efficacy (maximum FXR activation relative to 3 μM GW4064)” value in experiment [3] was 20±1%. In experiment [2], the IC50 was determined as 1100 ± 100 nM and the LTA4H max. inhib. stood at 94.9±0.2%.
